Blank lines part the entries; values can stand above or below the molecule they belong to.
Columns and labels:
[1] = system: GULP1 localization in T24 cells; test: Confocal imaging of GULP1 subcellular localization upon blocking nuclear export; type: cell-based, human; details: treatment for 5 hours
Procedure: To this end, the subcellular localization of GULP1 was determined by confocal microscopy analysis and nuclear-cytoplasm fractionation experiments using T24 cell line. The findings indicate that GULP1 localized in both nucleus and cytoplasm (FIG. 3d, upper and lower panel, and FIG. 8a). Ubiquitous localization pattern of GULP1 was further confirmed by performing immunofluorescence and confocal microscopy analysis by using two different antibodies against GULP1 and upon blocking nuclear export machinery by Leptomycin B (LMB) treatment for 5 hours (T24 cells in FIG. 3d and FIG. 8b).
Cells were grown on glass coverslips for 72 hs. After fixation in 4% paraformaldehyde, they were incubated in PBS 0.2% Glycine, permeabilized with PBS 10% Triton X100 for 10 minutes and incubated in Blocking buffer (PBS 3% BSA, 10% goat serum, 0.02% Tween) for 2-3 hours at r.t.
Incubation with the indicated primary antibodies (see Table 5) has been performed at 4° C. in the dark. After 5 washing with PBS 0.02% Tween, coverslips have been incubated with the indicated secondary antibodies (Table 5) for 1 h at r.t. For the case actin cytoskeleton analysis, after fixation, the coverslips have been incubated 90 minutes with Alexa Fluor® 488 Phalloidin (Life Technologies, 1:1000 in PBS). […] Slides were examined and photographed using a fluorescence microscope.

GULP1 transcript = test: 5-Aza-dC treatment of UC cell lines, GULP1 expression by RT-PCR; type: cell-based, human
Procedure: Twenty four hours before treatment, cells were plated at low density (1-3×10^6 cells, dependent on growth characteristics of the respective cell line) in T75 cm^2 Tissue Culture Flasks (BD Biosciences, Bedford, Mass., USA). Stock solutions of 100 mM 5-Aza-dC (Sigma-Aldrich, St. Louis, Mo.) and 5 mM Trichostatin A (TSA) (Sigma-Aldrich) were prepared with DMSO (Sigma-Aldrich). Immediately before addition to the cell culture medium, appropriate aliquots of the stock solutions were dissolved in PBS (pH 7.5). Cells were treated with 5 μM 5-Aza-dC for 3 to 5 days. Medium with 5-Aza-dC was changed daily. Additionally, combination treatment with 5-Aza-dC and TSA was performed by adding 5 μM of 5-Aza-dC daily for 5 days and TSA (300 nmol/L) was added to the medium for the final 24 hours. Cells were harvested 24 hours after the last day of treatment (5-Aza-dC only and 5-Aza-dC+TSA) for RNA extraction and the analysis of gene expression by Reverse Transcriptase-PCR (RT-PCR).
Total RNA (500 ng) from cell lines and from bladder tissue were reverse-transcribed with qScript cDNA SuperMix™ (Quanta BioSciences) kit. The primers were designed by using Primer3 software. Actin type B (ACTB) was used as a loading control. […] Expression of the gene of interest was quantified by 2^−ΔΔCT method.

[2] = system: T24 shGULP1 cells versus T24 shScramble cells; test: MTT viability assay upon treatment with serial dilution of cisplatin; type: cell-based, human; details: T24 shGULP1 vs T24 shScramble, different concentrations of CDDP
[3] = system: muscle-invasive bladder cancer (MIUC); details: patients with MIUC, neo-adjuvant chemotherapy preceding radical surgery; cited from earlier work
[4] = biological target: T1, Nuclear factor E2-related factor 2 (Nrf2) (UniProt Q16236 1-605, limits assumed); test: co-immunoprecipitation of endogenous GULP1 from whole-cell lysates (BFTC905, BFTC909, HUC1, T24), western blot
T1 construct: Endogenous protein from lysates of human cell lines; also called NFE2L2; NF2EL2
T1 sequence (looked up): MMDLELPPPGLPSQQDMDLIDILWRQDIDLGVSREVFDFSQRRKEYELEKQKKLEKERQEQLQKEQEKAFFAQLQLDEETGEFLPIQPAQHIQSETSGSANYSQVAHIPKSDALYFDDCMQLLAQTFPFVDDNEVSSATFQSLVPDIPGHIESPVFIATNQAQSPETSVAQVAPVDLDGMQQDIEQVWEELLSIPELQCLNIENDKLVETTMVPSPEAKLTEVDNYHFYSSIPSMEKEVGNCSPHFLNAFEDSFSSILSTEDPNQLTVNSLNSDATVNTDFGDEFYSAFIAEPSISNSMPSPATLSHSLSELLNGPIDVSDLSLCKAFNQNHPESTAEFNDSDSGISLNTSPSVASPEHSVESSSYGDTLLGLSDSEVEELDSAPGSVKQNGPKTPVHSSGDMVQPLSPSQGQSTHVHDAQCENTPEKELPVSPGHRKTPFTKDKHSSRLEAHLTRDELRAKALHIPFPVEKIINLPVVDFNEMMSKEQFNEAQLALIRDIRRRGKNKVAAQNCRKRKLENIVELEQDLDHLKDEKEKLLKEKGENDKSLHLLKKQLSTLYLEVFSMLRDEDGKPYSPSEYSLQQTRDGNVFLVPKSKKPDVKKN
From the text: (§1) a. […] Confocal imaging analysis of T24 cells. […] A not related protein antibody was used as a negative control for IP and 10% of whole cell lysate was used as input. d.

[5] = biological target: T2, BTB and CNC homology 1 (Bach1) (UniProt O14867 1-736); test: as above
T2 construct: Endogenous protein from lysates of human cell lines
T2 sequence (looked up): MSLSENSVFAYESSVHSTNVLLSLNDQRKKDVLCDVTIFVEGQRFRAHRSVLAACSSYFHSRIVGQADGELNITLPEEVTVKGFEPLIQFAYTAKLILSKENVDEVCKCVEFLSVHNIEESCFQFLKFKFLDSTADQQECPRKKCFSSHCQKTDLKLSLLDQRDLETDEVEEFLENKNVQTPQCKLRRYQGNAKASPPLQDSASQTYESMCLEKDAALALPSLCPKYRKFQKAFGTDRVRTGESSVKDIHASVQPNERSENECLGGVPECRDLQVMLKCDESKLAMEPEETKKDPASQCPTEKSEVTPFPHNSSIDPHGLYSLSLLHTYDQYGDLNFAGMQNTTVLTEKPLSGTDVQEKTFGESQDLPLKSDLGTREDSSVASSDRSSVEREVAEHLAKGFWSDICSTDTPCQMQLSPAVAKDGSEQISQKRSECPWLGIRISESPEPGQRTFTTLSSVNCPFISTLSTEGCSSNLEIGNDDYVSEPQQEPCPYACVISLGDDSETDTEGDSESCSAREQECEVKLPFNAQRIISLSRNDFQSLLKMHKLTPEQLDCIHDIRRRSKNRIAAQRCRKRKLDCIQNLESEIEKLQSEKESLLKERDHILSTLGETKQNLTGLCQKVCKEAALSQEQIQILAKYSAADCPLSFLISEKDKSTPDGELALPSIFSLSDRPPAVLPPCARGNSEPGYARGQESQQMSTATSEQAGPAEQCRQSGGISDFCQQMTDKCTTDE
From the text: as §1

Molecule: CCC(=C/[C@H](C)C/C=C/C(C)=C/[C@@H](C)C(=O)[C@@H](C)[C@H](O)[C@@H](C)C/C(C)=C/C(=O)O)/C=C/[C@@H]1OC(=O)C=C[C@@H]1C [Leptomycin B]
GULP1 nuclear export [1]: prevent GULP1 from going out from nucleus

Molecule: Nc1ncn([C@H]2C[C@H](O)[C@@H](CO)O2)c(=O)n1 [5-aza-dC, 5-Aza-2′-deoxycytidine]
GULP1 transcript level (GULP1 transcript; HT-1376 and SW780 UC cells, 5-azadC with or without trichostatin A (TSA), consistent with promoter demethylation): several fold increase in GULP1 transcript | GULP1 reactivation (GULP1 transcript; UC cell lines): reactivation of GULP1 was observed

Molecule: [NH2][Pt]([NH2])([Cl])[Cl] [CDDP, Cisplatin]
Cell viability of GULP1 knock-down cells compared with control cells [2]: significantly higher viability than the control cells | overall long-term survival benefit [3]: 6%

binding result [4]: no binding | binding result [5]: no binding
B1: PTB Domain-Containing Engulfment Adaptor Protein1 (GULP1) (other, human, UniProt Q9UBP9 1-304, looked up)
chain: MNRAFSRKKDKTWMHTPEALSKHFIPYNAKFLGSTEVEQPKGTEVVRDAVRKLKFARHIKKSEGQKIPKVELQISIYGVKILEPKTKEVQHNCQLHRISFCADDKTDKRIFTFICKDSESNKHLCYVFDSEKCAEEITLTIGQAFDLAYRKFLESGGKDVETRKQIAGLQKRIQDLETENMELKNKVQDLENQLRITQVSAPPAGSMTPKSPSTDIFDMIPFSPISHQSSMPTRNGTQPPPVPSRSTEIKRDLFGAEPFDPFNCGAADFPPDIQSKLDEMQEGFKMGLTLEGTVFCLDPLDSRC
notes: Endogenous protein from cell lysates; also called engulfment adaptor PTB domain containing 1; human homologue of CED-6
